Several values for one entry are separate records, joined by “and”; a condition that tells them apart may be missing. Identical values can stand only once. Like-named read-outs stand apart in the source and are kept apart here.
Columns and labels:
DPPH reduction assay = settings: DPPH 100 µM, 1 h in the dark
Experimental: The final solution was incubated during 1 h in the dark. […] Results are expressed as a percentage of DPPH reduction by subtracting blank absorbance (Absblank) to sample absorbance (Abssample) and corrected by control absorbance, (Abscontrol, DPPH alone, as expressed below: % DPPH reduction = [100 − ((Abssample − Absblank) × 100/Abscontrol)](1)
Briefly, the compounds under assay (150 µL) at the desired concentration (1, 10, 60 and 100 µM) in methanol/water (80/20) were added to a solution of DPPH in methanol/water (80/20) (150 µL, 100 µM), in a clear bottom 96-well plate, and the final solution was incubated 1 h in the dark. Then, DPPH absorbance of blank (methanol/water), control
Optima plate-reader (BMG Labtech, Ortenberg, Germany) in duplicate.
Results are expressed as % of absorbance (Abs) reduction of control after subtracting blank absorbance, as expressed
% DPPH reduction = [100 – (Abssample-Absblank) x 100]/Abscontrol

[1] = tested on: voltage-dependent Ca^2+ channels (VDCC); assay: Voltage dependent calcium channels blockade assay (Fluo-4, 70 mM K+); format: cell-based, human; settings: compounds at 10 μM, SH-SY5Y, basal = 100% response
Experimental: Free cytosolic Ca^2+ was measured using the fluorescence Ca^2+ indicator Fluo-4/AM. SH-SY5Y cells were seeded in 96-well black bottom transparent plates at a density of 60,000 cells per well and cultured until they reach confluence. Cells were incubated with the Ca^2+ sensitive dye Fluo-4/AM at 5 µM in Krebs-HEPES buffer (KH) (145 mM NaCl, 4.9 mM KCl, 1.2 mM MgCl2, 2 mM CaCl2, 10 mM HEPES, 11 mM glucose, pH 7.4), and 0.05% pluronic acid, for 1 h at 37 °C in the dark. Then, cells were washed twice with KH solution to remove the excess of probe and compounds in solution were added. Test compounds at 10 µM were incubated 10 min before K^+ 70 mM was applied to trigger cytosolic Ca^2+ increase. Fluorescence was measured in a fluorescence microplate reader (FLUOstar Optima, BMG, Ortenberg, Baden-Wuerttemberg, Germany) at excitation and emission wavelengths 485 and 520 nm, respectively. To normalize Fluo-4 signals, Triton X-100 (5%) and subsequently MnCl2 1 M were applied to the cells to register maximal and minimal fluorescence, respectively. Data were calculated as a percentage of Fluorescence increment with respect to Fmax − Fmin. The percentage of response was calculated considering basal conditions as 100% response.
Voltage dependent Calcium Channel Blockade Assay
Free cytosolic Ca2+ was measured using the fluorescence Ca2+ indicator Fluo-4/AM.
SH-SY5Y cells were seeded in 96-well black bottom transparent plates at a density of 60,000 cells per well until reaching confluence. Cells were incubated with the Ca2+ sensitive dye fluo-4 AM at 5 µM in Krebs-Hepes buffer (KH) (145 mM NaCl, 4.9 mM KCl, 1.2 mM MgCl2, 2 mM CaCl2, 10 mM HEPES, 11 mM glucose, pH 7.4), and 0.05 % pluronic acid, for 1 h at 37 °C in the dark. Then, cells were washed twice with KH solution to remove the excess of probe and compounds in solution were added. Tested compounds at 10 µM were incubated 10 min before K+ 70 mM was applied to evoke the increment of cytosolic Ca2+. The experiments were analyzed at excitation and emission wavelengths of 485 and 520 nm, respectively, and fluorescence was measured in a fluorescence microplate reader (FLUOstar Optima, BMG, Germany). To normalize Fluo-4 signals, Triton X-100 (5 %) and subsequently MnCl2 1 M were applied to cells for registering both maximal and minimal fluorescence, respectively. Data were calculated as % F increment respect to Fmax – Fmin. % of blockade was calculated considering basal conditions as 100 % response.
Then, the donor filter plate was carefully put on the acceptor plate to form a “sandwich”, which was left undisturbed for 4 h at 25 °C. During this time, the compounds diffused from the donor plate through the polar brain lipid membrane (area = 0.28 cm2) into the acceptor plate. After incubation, the donor plate was carefully removed. UV plate reader determined the concentration of compounds and commercial drugs in both acceptor and […]

GSK-3β = GSK-3β (Homo sapiens, UniProt P49841); assay: GSK-3β inhibition, Kinase-Glo luminescence assay
[2] = tested on: neuroblastoma cell line SH-SY5Y; assay: Cytotoxicity (neurotoxicity) in SH-SY5Y, MTT; settings: 24 h
Experimental: LD50 in SH-SY5Y and primary glial culture cells
(§1) cell line SH-SY5Y and primary glial cultures. Viability was measured as
(§2) MTT reduction in presence of increasing concentrations of derivatives.
(§3) Values are expressed as LD50 calculated from dose-response curves of four
(§4) different concentrations. Data are expressed as mean  SEM of five
different experiments in triplicate.
(§5) SH-SY5Y or primary glial cells were cultured in 96-well plates for 24 h. Then, cells
(§6) were treated with the compounds at 10, 30 and 100 µM in the corresponding culture media
(§7) with 1 % FBS After 24 h, cell viability was assessed by the MTT-reduction assay. Control
(§8) cells were incubated with the same concentration of DMSO (0.1 % final concentration)
Viability assay by MTT-reduction
(§9) SH-SY5Y, primary glial culture cells and rat hippocampal slices viability was
(§10) measured by the MTT assay [11]. This method is based on the cleavage of the tetrazolium
(§11) ring of MTT by active dehydrogenases, generating a formazan precipitate. At the end of
(§12) the neuroprotection or toxicity experiments, an MTT solution was added to each well to
(§13) reach a final concentration of 0.5 mg/mL. After 2 additional hours of incubation, the
(§14) solution was replaced by 100 or 300 µL of DMSO to solubilize the formazan precipitate.
(§15) in control cells was considered as 100 % of cell survival and used to reference all

[3] = Oxygen Radical Absorbance Capacity (ORAC) assay; settings: Trolox equivalents, ORAC of Trolox = 1.0; AAPH, fluorescein
[4] = Blood-brain barrier permeation assay (PAMPA), porcine brain lipid; format: in vitro ADME; settings: for PAMPA Prediction: BBB permeability class from Pe; for Prediction of the BBB passive permeability: PAMPA control compounds
[5] = tested on: blood-brain barrier (passive diffusion); assay: as above; format: in vitro ADME
primary glial cultures = assay: Cytotoxicity (gliotoxicity) in primary glial cultures, MTT; settings: 24 h
Experimental: as §1, §2, §3, §4
different experiments in triplicate.
Mixed glial cultures were obtained from cerebral cortex of 2-5-day-old Sprague-Dawley rats. After removal of blood vessels and meninges, the forebrains were dissociated in DMEM/F12 medium. After mechanical dissociation, cells were plated (3x10^5 cells/ml) in DMEM/F12 medium with 20 % fetal bovine serum (FBS) and 1 % penicillin/streptomycin (10,000 units), at 37 °C and in a 5 % CO2-supplemented air atmosphere. After 5 days, medium was substituted by DMEM/F12 medium with 10 %
FBS. Cells were cultured for 7-10 days before treatment.
as §5, §6, §7, §8
Viability assay by MTT-reduction
as §9
measured by the MTT assay [11].

[6] = tested on: primary glial cultures stimulated with LPS; assay: Nitrite production reduction (Griess) in LPS-stimulated mixed primary glial cultures; format: cell-based, rat; settings: Rattus norvegicus; LPS 1 μg/mL, 24 h pre-incubation, 18 h co-incubation
[7] = tested on: SH-SY5Y human neuroblastoma cells; assay: Neuroprotection against okadaic acid (tau hyperphosphorylation), MTT; settings: 18 h; for percentage of protection, okadaic acid toxicity: 1 μM, OA 20 nM; for viability at 1 µM: Homo sapiens, SH-SY5Y, read-out: cell viability (percentage survival), okadaic acid toxicity
Experimental: (§16) Cells were pre-incubated with the corresponding compound at 1 μM in neuroblastoma culture medium. After 24 h, the medium was removed and replaced with 1% FBS neuroblastoma culture media containing the corresponding compound at 1 µM and the toxic stimuli, namely a mixture of rotenone and oligomycin A (R/O, 30 μM/10 μM, respectively), okadaic acid (OA) at 20 nM or a high concentration of KCl (70 mM). Cells were co-incubated for further 24 h with the R/O mixture or KCl solution, or 18 h with the OA solution. […] Control cells were incubated with the same amount of dimethyl sulfoxide (DMSO) without any drug. After the co-incubation period, cell viability was assessed by the 3-(4,5-dimethylthiazol-2-yl)-2,5-diphenyltetrazolium bromide (MTT) reduction method [56]; basal condition was considered as 100% survival.
(§17) Neuroprotection in the SH-SY5Y neuroblastoma cell line
(§18) A pre- and co-incubation protocol was followed. Cells were pre-incubated with the
(§19) corresponding compound at 1 M in neuroblastoma culture medium. After 24 h, the
(§20) medium was removed and replaced with 1% FBS neuroblastoma culture media
(§21) containing the corresponding compound at 1 µM and the toxic stimuli, namely a mixture
(§22) of rotenone and oligomycin A (30 M/10 M respectively), okadaic acid at 20 nM or a
(§23) high concentration of potassium chloride (70 mM). Cells were co-incubated for further
(§24) 24 h with the rotenone and oligomycin A or potassium chloride solution, or 18 h with the
(§25) okadaic acid solution. Control cells were incubated with the same amount of DMSO
(§26) and reference compounds in the rotenone-oligomycin A, okadaic acid or high
(§27) concentration of potassium models respectively. After the co-incubation period, cell
(§28) viability was assessed by the MTT-reduction method [11] considering basal conditions
Viability assay by MTT-reduction
as §9, §10, §11, §12, §13, §14, §15
(§29) treatments. The percentage of protection was calculated as follows: the percentage of cell
(§30) survival obtained with the toxic stimuli-treated cells subtracted to 100 was normalized to
(§31) 100 % of cell death. The percentage of protection was obtained by subtracting the
(§32) percentage of cell death in presence of the tested compound to 100 %.

[8] = tested on: SH-SY5Y human neuroblastoma cells; assay: Neuroprotection against rotenone/oligomycin A (oxidative stress), MTT; settings: 1 μM, rotenone 30 μM / oligomycin A 10 μM, 24 h; for percentage of survival, R/O toxicity: basal = 100%
Experimental: as §16, §17, §18, §19, §20, §21, §22, §23, §24, §25, §26, §27, §28
Viability assay by MTT-reduction
as §9, §10, §11, §12, §13, §14, §15, §29, §30, §31, §32

[9] = PAMPA, 100 µM, PBS pH 7.4, 4 h at 25 °C, mean ± SEM, read-out: PAMPA Pe
[10] = pH 7.4, PAMPA control compounds, Pe ± SD, read-out: Pe ± SD

Sequence of GSK-3β (P49841 whole entry): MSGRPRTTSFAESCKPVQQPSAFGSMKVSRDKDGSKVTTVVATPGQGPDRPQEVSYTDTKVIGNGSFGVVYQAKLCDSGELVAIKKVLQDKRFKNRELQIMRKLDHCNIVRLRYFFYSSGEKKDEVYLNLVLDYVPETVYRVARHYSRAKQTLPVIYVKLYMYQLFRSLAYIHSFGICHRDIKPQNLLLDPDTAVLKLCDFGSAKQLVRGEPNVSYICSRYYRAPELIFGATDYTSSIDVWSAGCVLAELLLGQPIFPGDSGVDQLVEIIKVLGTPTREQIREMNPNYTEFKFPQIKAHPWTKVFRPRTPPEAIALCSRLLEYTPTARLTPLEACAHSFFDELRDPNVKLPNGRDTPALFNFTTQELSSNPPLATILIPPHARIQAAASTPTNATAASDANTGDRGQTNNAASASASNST

SMILES | IC50 (DPPH reduction assay) | VDCC % Response [1] | IC50 (GSK-3β) | Ki (GSK-3β) | SH-SY5Y LD50 [2] | ORAC (T. Eq.) [3] | PAMPA Prediction [4] | Papp at 4 h, 100 µM [5, 9] | Glial cultures LD50 (primary glial cultures) | EC50 [6] | percentage of protection, okadaic acid toxicity [7] | viability at 1 µM [7] | Prediction of the BBB passive permeability [4] | Papp at 4 h, 100 µM [5, 10] | percentage of survival, R/O toxicity [8] | fold more potent GSK-3β inhibitor than 4l (GSK-3β; ratio of IC50 values) | percentage of protection, R/O toxicity [8]
O=C1O[C@H]([C@@H](O)CO)C(O)=C1O [Ascorbic ac., Ascorbic acid, reference compound] | 61.9 ± 4.96 µM |  |  |  |  |  |  |  |  |  |  |  |  |  |  |  | 
COCCOC(=O)C1=C(C)NC(C)=C(C(=O)OC(C)C)C1c1cccc([N+](=O)[O-])c1 (stereo not drawn) [Nimodipine, reference compound] |  | 51.0 ± 2.6% |  |  |  |  |  |  |  |  |  |  |  |  |  |  | 
Cc1[nH]nc2c1C(c1cccc([N+](=O)[O-])c1)C(C#N)=C(N)N2 (stereo not drawn) [4h] | 24.7 ± 4.03 µM | 75.5 ± 2.7% | 0.82 ± 0.2 µM | 0.57 µM | > 100 µM | 0.73 T. Eq. and 0.73 ± 0.09 T. Eq. | CNS± | 21 ± 10 nm/s | > 100 µM | 3.5 ± 0.29 µM | 34.6% | 60.8% |  |  |  |  | 
Cc1[nH]nc2c1C(c1ccc([N+](=O)[O-])cc1)C(C#N)=C(N)N2 (stereo not drawn) [4i] | 23.2 ± 4.31 µM | 73.2 ± 2.9% | 3.09 ± 0.4 µM | 2.17 µM | > 100 µM | 0.96 ± 0.05 T. Eq. | CNS± | 31 ± 10 nm/s | > 100 µM | 6.1 ± 1.84 µM |  |  |  |  |  |  | 
CC(=O)[C@H]1CC[C@H]2[C@@H]3CCC4=CC(=O)CC[C@]4(C)[C@H]3CC[C@]12C [Progesterone, reference compound] |  |  |  |  |  |  |  |  |  |  |  |  | CNS (+/-) | 22 ± 28 nm/s |  |  | 
Cc1[nH]nc2c1C(c1cccnc1)C(C#N)=C(N)N2 (stereo not drawn) [4k] | 17.1 ± 2.18 µM | 85.6% and 85.6 ± 5.3% | 4.53 ± 2.1 µM | 3.18 µM | > 100 µM | 1.03 ± 0.16 T. Eq. | CNS- | 7 ± 9 nm/s | > 100 µM | 22.3 ± 3.42 µM | over 50% |  |  |  |  |  | 
Cc1[nH]nc2c1C(c1ccccc1)C(C#N)=C(N)N2 (stereo not drawn) [4a] | 25.2 ± 7.91 µM | 72.1 ± 5.8% |  |  | > 100 µM | 0.69 ± 0.04 T. Eq. | CNS+ | 80 ± 15 nm/s | > 100 µM | 5.2 ± 1.89 µM |  |  |  |  |  |  | 
Cc1[nH]nc2c1C(c1ccc(Cl)cc1)C(C#N)=C(N)N2 (stereo not drawn) [4e] | 20.9 ± 5.91 µM | 6.46% and 6.46 ± 1.6% | 1.94 ± 0.5 µM | 1.36 µM | > 100 µM | 0.66 T. Eq. and 0.66 ± 0.07 T. Eq. | CNS+ | 129 ± 36 nm/s | > 100 µM | 4.4 ± 0.35 µM |  | 64.6% |  |  | 73.6% |  | 
Cc1[nH]nc2c1C(c1ccccc1Cl)C(C#N)=C(N)N2 (stereo not drawn) [4c] | 23.3 ± 2.6 µM | 58.7 ± 6.8% | 1.51 ± 1.1 µM | 1.06 µM | > 100 µM | 0.94 T. Eq. and 0.94 ± 0.04 T. Eq. | CNS+ | 94 ± 35 nm/s | > 100 µM | 14.4 ± 2.19 µM | over 50% | 74% |  |  | 81.3% |  | 
Cc1[nH]nc2c1C(c1ccccc1Br)C(C#N)=C(N)N2 (stereo not drawn) [4f] | 21.6 ± 3.99 µM | 7.39% and 7.39 ± 2.0% | 0.83 ± 0.3 µM | 0.58 µM | > 100 µM | 1.00 ± 0.16 T. Eq. | CNS+ | 101 ± 54 nm/s | > 100 µM | 10.1 ± 0.72 µM | over 50% |  |  |  |  |  | 
Cn1c(=O)c2c(ncn2C)n(C)c1=O [Caffeine, reference compound] |  |  |  |  |  |  |  |  |  |  |  |  | CNS (-) |  |  |  | 
Cc1[nH]nc2c1C(c1cccs1)C(C#N)=C(N)N2 (stereo not drawn) [4j] | 20.9 ± 4.23 µM | 60.6 ± 6.8% | 1.74 ± 1 µM | 1.22 µM | > 100 µM | 2.93 T. Eq. and 2.93 ± 0.15 T. Eq. | CNS+ | 88 ± 44 nm/s | > 100 µM | 5.4 ± 0.27 µM |  | 64% |  |  |  | 5 fold | 
Cc1[nH]nc2c1C(c1ccc(F)cc1)C(C#N)=C(N)N2 (stereo not drawn) [4b] | 22.8 ± 6.68 µM | 48.5 ± 7.6% | 2.14 ± 1.1 µM | 1.5 µM | > 100 µM | 1.86 T. Eq. and 1.86 ± 0.08 T. Eq. | CNS+ | 48 ± 26 nm/s | > 100 µM | 5.7 ± 0.62 µM |  |  |  |  | 84.3% |  | 62.7%
CN1C(C(=O)Nc2ccccn2)=C(O)c2ccccc2S1(=O)=O [Piroxicam, reference compound] |  |  |  |  |  |  |  |  |  |  |  |  | CNS (+/-) | 33 ± 1 nm/s |  |  | 

— paper PMC7463999, “Antioxidant, Anti-inflammatory and Neuroprotective Profiles of Novel 1,4-Dihydropyridine Derivatives for the Treatment of Alzheimer’s Disease” (Antioxidants, 2020)
